The values that follow come from paper PMC9814781, “Structure-based design of a dual-warhead covalent inhibitor of FGFR4” (Communications Chemistry, 2022).

In one data set the test system is FGFR4(C552A) mutant. To be noted: cited from earlier work.
For another data set, the target named is FGFR1 (Homo sapiens, UniProt P11362). Briefly: MALDI-TOF MS covalent binding.
In a further data set the target is T1, FGFR4 (Homo sapiens, UniProt P22455).
T1 construct: purchased ICE Bioscience
The data set can be described thus: MALDI-TOF MS covalent binding. Here is the method:
(§1) Wild-type FGFRs and mutant FGFRs were prepared as previously described[25]–[27]. […] The N-terminal of the recombinant proteins were contained a 6xHis tag followed by a PreScission cleavage site for FGFR1, FGFR2, FGFR3, and FGFR4. Site-directed mutagenesis of FGFR4 was generated according to the ClonExpress II One Step Cloning Kit (Vazyme) using the pET28a-FGFR4 plasmid as the template. […] For crystallization experiments, the wild-type FGFR4 plasmid was co-expressed with untagged YOPH to obtain non-phosphorylated proteins. The proteins were first purified by Ni-NTA affinity chromatography. The 6 × His tag was removed by PreScission protease. Then, anion exchange chromatography (Mono Q) and size exclusion chromatography (if necessary) were exploited for further purification. The target proteins were concentrated to ~5–15 mg/mL and flash frozen for storage at −80°C for subsequent studies.

Another data set has as its target T2, FGFR4(C552A) (Homo sapiens, UniProt P22455, C552A).
T2 construct: FGFR4 (residues 445–753); 6xHis + PreScission site (N, cleaved yes); made in house; host or cells: Escherichia coli Rosseta
Briefly: MALDI-TOF MS covalent binding. Here is the method:
as §1

The target in another data set is T3, FGFR4(C477A) (Homo sapiens, UniProt P22455, C477A).
T3 construct: FGFR4 (residues 445–753); 6xHis + PreScission site (N, cleaved yes); made in house; host or cells: Escherichia coli Rosseta
T3 sequence (P22455 445-753 C477A): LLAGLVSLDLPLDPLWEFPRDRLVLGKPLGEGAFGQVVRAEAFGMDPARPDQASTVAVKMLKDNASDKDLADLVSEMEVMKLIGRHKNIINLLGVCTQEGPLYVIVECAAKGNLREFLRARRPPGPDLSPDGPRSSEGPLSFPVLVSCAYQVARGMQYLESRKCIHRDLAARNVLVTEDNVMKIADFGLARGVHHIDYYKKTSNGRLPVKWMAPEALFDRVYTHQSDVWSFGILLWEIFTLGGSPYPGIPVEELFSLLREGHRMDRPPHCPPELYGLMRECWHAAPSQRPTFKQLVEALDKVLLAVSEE
The data set can be described thus: MALDI-TOF MS covalent binding. Here is the method: as §1

A further data set can be described thus: GSH reaction assay. In kind it is in vitro ADME. To be noted: GSH 5 mM, inhibitor 1 mM, 37°C, 10–60 min. Here is the method:
GSH (5 mM) and inhibitor (1 mM) or DMSO control were mixed in equal volumes and reacted at 37°C for 10 min, 20 min, 30 min, 40 min, 50 min, and 60 min. The remaining GSH was detected with DTNB (Beyotime, China), and the absorption light was measured at 412 nm on a plate reader (Perkin-Elmer). Data were determined using the time (min) versus % of control in Origin 2018 software.

Some results are limits rather than exact numbers.

T2 sequence (P22455 445-753 C552A): as the sequence (P22455 445-753 C477A) above, with A33C, C108A counted along it
T1 sequence (P22455 22-802): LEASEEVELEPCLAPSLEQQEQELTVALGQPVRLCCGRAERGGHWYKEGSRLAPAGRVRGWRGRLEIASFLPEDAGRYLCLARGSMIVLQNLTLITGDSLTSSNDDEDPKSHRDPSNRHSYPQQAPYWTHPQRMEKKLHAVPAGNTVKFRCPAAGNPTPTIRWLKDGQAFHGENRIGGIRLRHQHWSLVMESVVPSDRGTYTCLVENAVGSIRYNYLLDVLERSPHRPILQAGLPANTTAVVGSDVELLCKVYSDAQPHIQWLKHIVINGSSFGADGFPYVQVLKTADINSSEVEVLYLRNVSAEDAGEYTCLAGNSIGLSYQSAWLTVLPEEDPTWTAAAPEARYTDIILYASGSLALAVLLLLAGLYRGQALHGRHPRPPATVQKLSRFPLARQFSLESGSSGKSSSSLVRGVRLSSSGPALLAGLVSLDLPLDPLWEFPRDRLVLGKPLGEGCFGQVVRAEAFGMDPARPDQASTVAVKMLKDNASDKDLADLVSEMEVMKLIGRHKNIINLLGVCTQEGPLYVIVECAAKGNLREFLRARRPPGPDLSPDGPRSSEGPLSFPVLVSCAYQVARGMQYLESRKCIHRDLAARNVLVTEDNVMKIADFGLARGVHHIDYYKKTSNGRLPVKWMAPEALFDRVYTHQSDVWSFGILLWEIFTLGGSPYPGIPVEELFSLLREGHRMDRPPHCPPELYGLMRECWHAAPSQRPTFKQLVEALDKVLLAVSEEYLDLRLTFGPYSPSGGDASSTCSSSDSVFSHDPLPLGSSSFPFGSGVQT
FGFR1, sequence (P11362 22-822): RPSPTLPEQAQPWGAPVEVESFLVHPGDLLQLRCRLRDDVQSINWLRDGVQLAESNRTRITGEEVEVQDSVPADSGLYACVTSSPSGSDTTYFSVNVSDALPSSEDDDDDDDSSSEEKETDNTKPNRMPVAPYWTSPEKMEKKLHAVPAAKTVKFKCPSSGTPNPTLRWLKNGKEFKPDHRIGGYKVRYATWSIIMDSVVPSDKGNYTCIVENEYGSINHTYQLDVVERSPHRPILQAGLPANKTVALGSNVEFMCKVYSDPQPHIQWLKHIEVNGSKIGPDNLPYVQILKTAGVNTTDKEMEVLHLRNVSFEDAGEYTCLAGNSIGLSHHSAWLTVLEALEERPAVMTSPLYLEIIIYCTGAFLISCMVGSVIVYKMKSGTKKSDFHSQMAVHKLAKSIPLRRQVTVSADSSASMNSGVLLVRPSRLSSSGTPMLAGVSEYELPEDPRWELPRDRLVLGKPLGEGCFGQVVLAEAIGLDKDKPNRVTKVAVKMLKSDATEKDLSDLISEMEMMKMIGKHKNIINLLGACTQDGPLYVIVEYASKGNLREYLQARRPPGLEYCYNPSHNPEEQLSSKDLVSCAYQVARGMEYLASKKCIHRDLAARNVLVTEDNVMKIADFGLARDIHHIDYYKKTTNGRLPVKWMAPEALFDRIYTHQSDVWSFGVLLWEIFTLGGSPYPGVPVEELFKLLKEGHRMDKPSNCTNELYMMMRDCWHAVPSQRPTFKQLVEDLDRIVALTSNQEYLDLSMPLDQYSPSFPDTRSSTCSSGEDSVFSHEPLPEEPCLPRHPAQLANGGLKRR
Protocol for FGFR1: The N-terminal of the recombinant proteins were contained a 6xHis tag followed by a PreScission cleavage site for FGFR1, FGFR2, FGFR3, and FGFR4. […] The proteins were first purified by Ni-NTA affinity chromatography. The 6 × His tag was removed by PreScission protease. Then, anion exchange chromatography (Mono Q) and size exclusion chromatography (if necessary) were exploited for further purification. The target proteins were concentrated to ~5–15 mg/mL and flash frozen for storage at −80°C for subsequent studies.

One may read the IC50 as the concentration that inhibits the measured activity by half. For the molecule `C=CC(=O)N[C@H]1CCOC[C@H]1Nc1ncc2cc(-c3c(Cl)c(OC)cc(OC)c3Cl)ccc2n1` [BLU554], in the data set on FGFR4(C552A) mutant, the IC50 is more than 10 µM.

As for `C=CC(=O)Nc1cccc(C)c1Nc1ncc2c(n1)N(CCCN1CCN(C(=O)C=C)CC1)C(=O)N(c1cc(OC)cc(OC)c1)C2` [CXF-008], the “covalent bond formation (mass shift)” value on FGFR1 is on record as “forms a covalent bond with FGFR1”; at FGFR4 it was “only forms one covalent bond with Cys552 of FGFR4”; on FGFR4(C552A), “not with FGFR4(C552A)”; at FGFR4(C477A), “forms a covalent bond with FGFR4(C477A)”.

With `COCCNc1cc(NC(=O)N2CCCc3cc(CN4CCN(C)CC4=O)c(C=O)nc32)ncc1C#N` [FGF401], in the data set on FGFR4(C552A) mutant, the IC50 is […]. `C=CC(=O)N1CCN(CCCn2c(=O)c(-c3c(Cl)c(OC)cc(OC)c3Cl)cc3cnc(NC)nc32)CC1` [PRN1371, 8-(3-(4-Acryloylpiperazin-1-yl)propyl)-6-(2,6-dichloro-3,5-dimethoxyphenyl)-2-(methylamino)pyrido[2,3-d]pyrimidin-7(8H)-one, reference compound]: in the data set “GSH reaction assay”, the “GSH reactivity (remaining GSH, DTNB)” value is on record as “time-dependent decrease in GSH”.
